For 8 compounds, IC50 results are on record in patent publication US20160039802A1, “3-PYRIMIDIN-4-YL-OXAZOLIDIN-2-ONES AS INHIBITORS OF MUTANT IDH” (NOVARTIS AG, priority 2013, published 2016).

Experiment [1] concerns the target T1, Mutant IDH1 R132H (Homo sapiens, UniProt O75874, R132H).
T1 construct: His6 with PreScission site (N, cleaved yes); made in house; host or cells: E. coli Rosetta 2(DE3)
Nature of the experiment: Mutant IDH1 biochemical assay: LC-MS detection of 2-HG. Note: mIDH R132H 0.25 nM, 5 µM NADPH. The settings on record: mIDH R132H […], 5 uM NADPH, 100 uM alpha-KG, 45 minutes incubation; range where run multiple times. The text has this: Mutant IDH1 biochemical Sssay: LC-MS Detection of 2-HG.

The target in experiment [2] is T2, IDH1 (R132H) mutant (Homo sapiens, UniProt O75874, R132H).
T2 construct: His6 with PreScission site (N, cleaved yes); made in house; host or cells: E. coli Rosetta 2(DE3)
Nature of the experiment: Fluorescence biochemical assay (NADPH oxidation). The settings on record: mIDH R132H 10 nM, 10 μM NADPH, 100 μM α-KG; range where run multiple times. As for the experimental part:
The IDH1 (R132H) mutant catalyzes the reduced form of NADP+ (NADPH) and α-ketoglutarate (α-KG) to form nicotinamide adenine dinucleotide phosphate (NADP+) and R(−)-2-hydroxyglutarate (2HG). […] Reactions were monitored using the Perkin-Elmer Envision, Model 2101. […] The final reaction mixture contained 2.5% DMSO and test compounds with concentrations ranging 0.0000008-25 μM. The IDH1 (R132H) enzyme was used at a final concentration of 10 nM. Curve fitting for dose response […] determinations was done in the Helios module of the software package DAVID. The 4-parameter logistic model was used: y=min+((max−min)/1+(x/IC50)^shape)

The structures appear in SMILES notation.

T2 sequence (O75874 whole entry R132H): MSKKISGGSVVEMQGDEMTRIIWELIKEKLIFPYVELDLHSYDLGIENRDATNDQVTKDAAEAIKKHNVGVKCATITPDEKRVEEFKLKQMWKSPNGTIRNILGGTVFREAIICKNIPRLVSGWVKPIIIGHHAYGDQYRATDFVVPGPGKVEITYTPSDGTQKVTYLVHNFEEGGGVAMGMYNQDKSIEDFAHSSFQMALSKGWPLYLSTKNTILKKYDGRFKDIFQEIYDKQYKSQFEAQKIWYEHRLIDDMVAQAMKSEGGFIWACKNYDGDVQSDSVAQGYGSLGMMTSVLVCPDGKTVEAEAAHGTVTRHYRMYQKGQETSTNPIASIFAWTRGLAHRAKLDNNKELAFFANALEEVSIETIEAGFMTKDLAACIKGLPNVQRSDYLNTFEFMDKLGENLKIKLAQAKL
T1 sequence (O75874 whole entry R132H): as above

Regarding `C[C@H](Nc1ncc(F)c(N2C(=O)OCC2(C)C2CC2)n1)c1ccc(CN2CCC(C)(N)CC2)cc1F` (single isomer, unassigned) [Example 61], the figures for the IC50 in experiment [1] and in experiment [2] were 696 nM and 236 nM, respectively.
On the same counts, the results for `C[C@H](Nc1ncc(F)c(N2C(=O)OCC2(C)C2CC2)n1)c1ccc(CN2CCC(N(C)C)CC2)cc1F` (single isomer, unassigned) [Example 58] are 2720 nM and 971 nM.
For `C[C@H](Nc1nccc(N2C(=O)OCC2(C)C2CC2)n1)c1ccc(F)cc1` (single isomer, unassigned) [Example 46], the IC50 in experiment [1] was 791 nM; in experiment [2], 793 to 1210 nM.
On the same counts, the results for `CC(Nc1nccc(N2C(=O)OC[C@]2(C)C2CC2)n1)c1nc(-c2ccc(Cl)c(OC(F)(F)F)c2)no1` (single isomer, unassigned) [Example 64] are 25.2 nM and 10.3 to 42.4 nM.
In the same order, the values of `C[C@H](Nc1ncc(F)c(N2C(=O)OCC2(C)C2CC2)n1)c1ccc(CN2CCC(C)(N)CC2)c(F)c1` (single isomer, unassigned) [Example 59] are 922 nM and 183 nM.
In the same order, the values of `Cc1cc(N2C(=O)OC[C@@H]2C2CC2)nc(N[C@@H](C)c2cn(-c3ccc(Cl)cc3)cn2)n1` [Example 7, (S)-3-(2-(((S)-1-(1-(4-chlorophenyl)-1H-imidazol-4-yl)ethyl)amino)-6-methylpyrimidin-4-yl)-4-cyclopropyloxazolidin-2-one] are 8.45 nM and 17.4 nM.
On to `C[C@H](Nc1nccc(N2C(=O)OC[C@]2(C)C2CC2)n1)c1ccc(CN2CCC(N(C)C)CC2)cc1F` [Example 33, (S)-4-cyclopropyl-3-(2-(((S)-1-(4-((4-(dimethylamino)piperidin-1-yl)methyl)-2-fluorophenyl)ethyl)amino)pyrimidin-4-yl)-4-methyloxazolidin-2-one], for which the results for the IC50 in experiment [1] and in experiment [2] were 175 nM and 109 to 115 nM, respectively.
On the same counts, the results for `C[C@H](Nc1nc(Cl)cc(N2C(=O)OC[C@@H]2C2CC2)n1)c1cn(-c2ccc(F)cc2)cn1` [Example 27, (S)-3-(6-chloro-2-(((S)-1-(1-(4-fluorophenyl)-1H-imidazol-4-yl)ethyl)amino)pyrimidin-4-yl)-4-cyclopropyloxazolidin-2-one] are 20 nM and 7.27 nM.
